# Literature values in patent publication US7459460B2, “Trisubstituted heteroaromatic compounds as calcium sensing receptor modulators” (Bristol-Myers Squibb Company, priority 2003, dated 2008).
# Experiments:
# [1] = OVX rats, oral administration, in the presence of an anti-resorptive agent
# [2] = intravenous bolus injection
# [3] = postmenopausal women, placebo-controlled trial
Compound,bone mass [1],serum PTH [2],"reduce the risk of non-traumatic, non-spine fractures [3]",reduce the risk of spine fractures [3]
CC(C)(Cc1ccc2ccccc2c1)NC[C@@H](O)COc1cccc(Cl)c1C#N [NPS-2143],increase in bone mass,transient increase in serum PTH,,
"PTH peptide fragment (1-34): the PTH peptide fragment (1-34) of parathyroid hormone (SVSEIQLMHNLGKHLNSMERVEWLRKKLQDVHNF; Parathyroid hormone; UniProt P01270 32-65, looked up, fragment)",,,54%,65%
